Several values for one entry are separate records, joined by “and”; a condition that tells them apart may be missing. Identical values can stand only once.
Tests used:
[1] = biological target: T1, cloned dopamine receptor subtype 3 (Rattus norvegicus, UniProt P19020); experiment: Radioligand binding to D3 receptor (transfected Sf9 cell membranes, 3H-7-OH-DPAT)
T1 construct: purchased Signal Screen; host or cells: Sf9 cells
Description: (§1) For the D2 receptor ^3H-Spiperone (0.2 nM) was used and the non-specific binding was determined in the presence of 100 μM of (−)sulpiride. As regards the D3 receptor, the radioligand selected 3H-7-OH-DPAT was used at the concentration of 0.2 μM and the non-specific binding was obtained in the presence of dopamine 10 μM. Lastly, interaction with 5HT2a was evaluated using ^3H-ketanserin (0.7 μM) and the non-specific binding was determined in the presence of methysergide 1 μM.

5HT2a receptor = biological target: T2, 5HT2a receptor (Rattus norvegicus, UniProt P14842); experiment: Radioligand binding to 5HT2a receptor (prefrontal cortex, 3H-ketanserin)
T2 construct: using different cerebral areas (striate D1 and D2; prefrontal cortex 5HT2a); from tissue; host or cells: prefrontal cortex
Description: as §1

catalepsy [2] = conditions: rat, in vivo, po, 100 mg/kg
Description: Effect of Treatment in Catalepsy Test.
(§2) The test was carried out on male rats of the Wistar strain (n=7 animals); evaluation of catalepsy was done by means of a metal rod measuring 0.6 cm in diameter positioned at a distance of 10 cm from the work surface. […] Subsequent observations were recorded at 60, 90, 120, 180, 240, and 300 minutes after administration.

D1 receptor = D1 receptor (Rattus norvegicus, UniProt P18901)
Description: as §1

avoidance response = experiment: Active avoidance test; format: in vivo; conditions: Rattus norvegicus; male Fischer 344 rats; oral, 60 minutes prior to the test; read-out: Inhibition of avoidance response (ED50)
Excerpt: Effect of Treatment in Active Avoidance Test.
The administration of incremental doses of an antipsychotic drug in the rat causes inhibition of the active avoidance response and an increase in the number of escape responses without any increase in failures. This change in the animal's avoidance behaviour is characteristic of the effect of the administration of a compound endowed with anti-psychotic activity. Therefore, the evaluation of such behaviour enables us to detect and determine the antipsychotic capacity of a product.
Male Fischer 344 rats weighing 180 g (Charles River) were used.
To carry out the test to assess the avoidance behaviour of the rats a piece of equipment was used (Ugo Basile) consisting of a plastic cage divided into two compartments by a partition wall with an aperture in it allowing communication between the two sectors. Each of the two sectors can be illuminated by a 10 Watt lamp placed above a plexiglas lid covering the cage. A programming device allows the regulation of the duration and frequency of the unconditioned and discriminatory stimuli and a computerised system acquires the experimental data. […]
Before treatment with the study compounds, the animals were selected in relation to their ability to master the task. […] The results were expressed as means and standard errors.

catalepsy [3] = experiment: in vivo; conditions: male, Wistar, rat, po, Induction of catalepsy (ED50)
Description: Effect of Treatment in Catalepsy Test.
as §2

T2 sequence (P14842 whole entry): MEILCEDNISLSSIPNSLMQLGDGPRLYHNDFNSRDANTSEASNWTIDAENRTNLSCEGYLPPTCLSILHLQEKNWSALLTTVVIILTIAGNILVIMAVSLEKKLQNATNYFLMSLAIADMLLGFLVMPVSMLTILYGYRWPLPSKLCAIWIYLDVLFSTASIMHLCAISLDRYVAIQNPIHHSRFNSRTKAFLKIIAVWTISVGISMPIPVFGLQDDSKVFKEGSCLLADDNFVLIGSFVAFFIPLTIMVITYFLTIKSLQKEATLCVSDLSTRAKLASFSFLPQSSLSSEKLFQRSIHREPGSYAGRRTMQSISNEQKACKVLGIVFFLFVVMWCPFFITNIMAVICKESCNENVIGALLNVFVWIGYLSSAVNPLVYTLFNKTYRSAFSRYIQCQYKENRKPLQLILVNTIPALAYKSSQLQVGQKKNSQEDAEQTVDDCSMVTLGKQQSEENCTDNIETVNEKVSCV
D1 receptor, sequence (P18901 whole entry): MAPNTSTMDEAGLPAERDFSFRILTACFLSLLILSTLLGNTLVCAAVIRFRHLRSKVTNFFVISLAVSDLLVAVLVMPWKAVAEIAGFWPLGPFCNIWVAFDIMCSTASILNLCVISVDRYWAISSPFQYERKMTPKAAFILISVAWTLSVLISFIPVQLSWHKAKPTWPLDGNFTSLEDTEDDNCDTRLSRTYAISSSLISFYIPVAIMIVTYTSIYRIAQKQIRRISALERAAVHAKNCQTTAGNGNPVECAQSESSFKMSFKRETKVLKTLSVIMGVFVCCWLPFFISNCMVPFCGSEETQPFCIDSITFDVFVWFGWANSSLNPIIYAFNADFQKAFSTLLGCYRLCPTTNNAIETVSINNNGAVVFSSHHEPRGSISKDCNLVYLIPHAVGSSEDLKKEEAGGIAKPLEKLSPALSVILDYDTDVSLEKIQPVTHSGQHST
T1 sequence (P19020 whole entry): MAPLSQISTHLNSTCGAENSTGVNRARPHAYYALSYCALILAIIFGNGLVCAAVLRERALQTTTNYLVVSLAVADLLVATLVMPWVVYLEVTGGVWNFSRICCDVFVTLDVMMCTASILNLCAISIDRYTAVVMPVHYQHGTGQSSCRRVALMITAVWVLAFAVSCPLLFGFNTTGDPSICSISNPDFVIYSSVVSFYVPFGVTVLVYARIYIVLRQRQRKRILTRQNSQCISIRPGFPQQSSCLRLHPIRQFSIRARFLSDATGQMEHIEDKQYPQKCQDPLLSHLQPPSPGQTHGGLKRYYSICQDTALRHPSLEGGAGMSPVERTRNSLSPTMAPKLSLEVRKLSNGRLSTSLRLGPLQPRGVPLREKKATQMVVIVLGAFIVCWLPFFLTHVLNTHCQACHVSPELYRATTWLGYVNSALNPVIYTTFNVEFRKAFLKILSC

Compound	Ki [1] [nM]	5HT2A pKi (5HT2a receptor)	Log Y (5HT2a receptor; from relative affinity for 5HT2, D2 and D1, classic >6.48, atypical <6.48)	Ki (5HT2a receptor; prefrontal cortex, 3H-ketanserin) [nM]	Presence of catalepsy (catalepsy [2])	D1 pKi (D1 receptor)	Ki (D1 receptor; read-out: D1 (Ki: nM), striate, [3H]-SCH 23390) [nM]	ED50 (avoidance response)	ED50 (catalepsy [3])
CN1CCN(C2=Cc3ccccc3Cn3cccc32)CC1 [ST2329, 11-(4-Methylpiperazin-1-yl)-5H-pyrrolo[2,1-b][2]benzazepine]	224	8.14	3.20	7.2	no presence of catalepsy was detected	6.90	125	0.56 mg/kg and 2 µmol/kg	
CN1CCN(C2=Nc3cc(Cl)ccc3Nc3ccccc32)CC1 [Clozapine, reference compound]								4.9 mg/kg and 15 µmol/kg	100 mg/kg and 276 µmol/kg
